Measurements: patent publication US20260048068A1, “PHENYLUREA DERIVATIVES AND THEIR PHARMACEUTICAL USES” (HANGZHOU BIO-SINCERITY PHARMA-TECH CO., LTD., priority 2022, published 2026)

Key:
histamine H3 receptor = histamine H3 receptor (Homo sapiens, UniProt Q9Y5N1); experiment: FLPPR assay, antagonistic activity at histamine H3 receptor; format: cell-based; conditions: for inhibition at 0.005 µM: 5 nM compound, read-out: % Inh-AVERAGE @ 5 nM; for inhibition at 0.05 µM: 50 nM compound, read-out: % Inh-AVERAGE @ 50 nM
Method: The FLPPR assay (NIH Assay Guidance Manual: HTS Assay Validation-Section 4.3. Analysis (Potency), htpps://www.ncbi.nlm.nih.gov/books/NBK83783) was performed using SUVN-G3031 as the positive control, and 13 target compounds were tested for the antagonistic activity target to histamine H3 receptor.

CCI model rats = experiment: Chronic constriction injury (CCI) neuropathic pain model, mechanical withdrawal threshold; format: in vivo; conditions: CCI SD rats; for Mechanical pain (withdrawal) threshold vs model group: single dose, 0.5-6 h
Text: Exposing the sciatic nerve on male SD rats' (180-200 g) right hind leg, in the anterior segment where the sciatic nerve is about to bifurcate, use sterile chromic gut thread (No. 4, 0.15 mm in diameter) to ligate 4 loops loosely, with each loop 1-2 mm apart, and suture the muscle and skin to establish the chronic constriction injury (CCI) model. In the sham-operated group, only the sciatic nerve is exposed without ligation, and the muscle and skin are sutured. The mechanical withdrawal threshold is detected by electronic analgesia meter (IITC-2391) on the 7th day for 2 consecutive days.
The CCI model rats with stabilized mechanical withdrawal thresholds were randomly divided into three groups, named model group (model), pregabalin group (Pre, 30 mg/kg), BIOS-A-3 compound group (1 mg/kg), and were administered at 1 mL/100 g by gavage, and the same column of saline was gavaged in Sham and model group. The basic value was determined before drug administration, and the mechanical withdrawal thresholds were detected at 0.5 h, 1 h, 2 h, 4 h and 6 h after a single drug administration, and the p value was calculated by ANOVA with T-test.

hERG channel = hERG channel (Homo sapiens, UniProt Q12809); experiment: in vitro
Text: In cardiomyocytes, inhibition of the delayed rectifier potassium current (IKr) channel protein encoded by the human Ether-a-go-go Related Gene (hERG) is the most importane mechanism by which drugs lead to prolongation of the QT interval. hERG is characterized by a specific molecular structure, which allows it to be inhibited by different structures, leading to severe arrhythmias. Statistically, 25-40% of lead compounds show varying degrees of hERG-related toxicity. early evaluation of the effects of compounds on hERG is crucial in the drug development process. The inhibition rate of compounds on hERG channels is examined by manual membrane clamp technique on HEK293 cell line whichi stably ecpressing hERG ion channels.

[1] = Average inhibition rate (%) on hERG channel
[2] = Inhibition rate on hERG channel

histamine H3 receptor, sequence (Q9Y5N1 whole entry, species assumed): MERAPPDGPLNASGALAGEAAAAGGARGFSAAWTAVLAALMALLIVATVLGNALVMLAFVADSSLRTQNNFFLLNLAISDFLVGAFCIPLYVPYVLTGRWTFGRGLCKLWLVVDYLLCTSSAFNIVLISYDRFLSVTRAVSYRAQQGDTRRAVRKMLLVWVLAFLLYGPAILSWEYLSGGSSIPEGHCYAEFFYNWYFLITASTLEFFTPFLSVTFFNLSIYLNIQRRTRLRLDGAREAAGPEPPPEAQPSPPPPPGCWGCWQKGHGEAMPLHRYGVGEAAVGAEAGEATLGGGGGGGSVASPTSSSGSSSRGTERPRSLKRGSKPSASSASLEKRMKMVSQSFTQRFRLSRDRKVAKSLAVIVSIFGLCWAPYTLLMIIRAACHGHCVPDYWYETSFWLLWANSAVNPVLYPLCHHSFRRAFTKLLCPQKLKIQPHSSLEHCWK
hERG channel, sequence (Q12809 whole entry): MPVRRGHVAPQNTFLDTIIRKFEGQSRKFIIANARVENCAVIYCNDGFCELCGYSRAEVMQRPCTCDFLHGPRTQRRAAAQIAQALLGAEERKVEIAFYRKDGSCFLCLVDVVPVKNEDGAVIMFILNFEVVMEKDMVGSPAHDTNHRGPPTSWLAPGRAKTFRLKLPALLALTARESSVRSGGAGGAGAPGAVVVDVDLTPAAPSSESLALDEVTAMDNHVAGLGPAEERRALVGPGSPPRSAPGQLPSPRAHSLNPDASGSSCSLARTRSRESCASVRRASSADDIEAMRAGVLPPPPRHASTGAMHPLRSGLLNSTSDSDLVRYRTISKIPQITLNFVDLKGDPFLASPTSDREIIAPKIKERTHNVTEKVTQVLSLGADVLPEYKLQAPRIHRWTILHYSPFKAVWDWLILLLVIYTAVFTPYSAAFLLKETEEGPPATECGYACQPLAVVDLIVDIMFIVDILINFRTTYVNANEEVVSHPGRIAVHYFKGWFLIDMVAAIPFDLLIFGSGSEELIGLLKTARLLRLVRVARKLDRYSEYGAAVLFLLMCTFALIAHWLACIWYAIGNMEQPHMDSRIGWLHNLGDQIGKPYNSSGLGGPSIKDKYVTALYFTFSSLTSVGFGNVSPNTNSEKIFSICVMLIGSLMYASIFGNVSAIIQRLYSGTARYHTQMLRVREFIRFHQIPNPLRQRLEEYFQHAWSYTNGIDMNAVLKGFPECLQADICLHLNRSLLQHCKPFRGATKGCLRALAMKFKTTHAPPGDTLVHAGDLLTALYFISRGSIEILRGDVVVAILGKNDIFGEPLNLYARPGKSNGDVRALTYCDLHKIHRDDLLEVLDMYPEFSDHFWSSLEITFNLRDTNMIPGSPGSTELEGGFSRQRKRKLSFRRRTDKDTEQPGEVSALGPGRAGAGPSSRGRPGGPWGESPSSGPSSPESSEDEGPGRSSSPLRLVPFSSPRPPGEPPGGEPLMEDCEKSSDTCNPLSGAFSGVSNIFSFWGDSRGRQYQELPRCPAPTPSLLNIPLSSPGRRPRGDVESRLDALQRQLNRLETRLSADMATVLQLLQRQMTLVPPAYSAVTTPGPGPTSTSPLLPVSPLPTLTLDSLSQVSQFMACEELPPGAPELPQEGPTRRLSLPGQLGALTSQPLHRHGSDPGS

Row | Structure (SMILES) | inhibition at 0.005 µM (histamine H3 receptor) [%] | inhibition at 0.05 µM (histamine H3 receptor) [%] | Mechanical pain (withdrawal) threshold vs model group (CCI model rats; 1 mg/kg by gavage) | Acting time compared with pregabalin (CCI model rats; 1 mg/kg vs pregabalin 30 mg/kg) | inhibition at 10 µM (hERG channel; [1]) [%] | inhibition at 10 µM (hERG channel; [2]) [%] | Mechanical pain (withdrawal) threshold vs model group (CCI model rats; 30 mg/kg by gavage)
1 | O=C(Nc1ccc(OC2CCN(C3CCC3)CC2)cc1)NC1CCCC1 [BIOS-A-1, 1-(4-((1-cyclobutylpiperidin-4-yl)oxy)phenyl)-3-cyclopentylurea] | 77.4 | 99.7 |  |  |  |  | 
2 | O=C(NCCN1CCOCC1)Nc1ccc(OC2CCN(C3CCC3)CC2)cc1 [BIOS-A-3, 1-(4-((1-cyclobutylpiperidin-4-yl)oxy)phenyl)-3-(2-morpholinoethyl)urea] | 95.6 | 100 | significantly increased the mechanical tingling threshold of CCI model rats | had a longer acting time | 1.56 |  | 
3 | O=C(NCCN1CCCCC1)Nc1ccc(OC2CCN(C3CCC3)CC2)cc1 [BIOS-A-4, 1-(4-((1-cyclobutylpiperidin-4-yl)oxy)phenyl)-3-(2-(piperidin-1-yl)ethyl)urea] | 102 | 98.6 |  |  | 0.96 |  | 
4 | O=C(NCCN1CCCC1)Nc1ccc(OC2CCN(C3CCC3)CC2)cc1 [BIOS-A-5, 1-(4-((1-cyclobutylpiperidin-4-yl)oxy)phenyl)-3-(2-(pyrrolidin-1-yl)ethyl)urea] | 101 | 99.7 |  |  | 2.64 |  | 
5 | C[C@@H]1CCCN1CCNC(=O)Nc1ccc(OC2CCN(C3CCC3)CC2)cc1 [BIOS-A-6, (R)-1-(4-((1-cyclobutylpiperidin-4-yl)oxy)phenyl)-3-(2-(2-methylpyrrolidin-1-yl)ethyl)urea] | 81.3 | 101 |  |  |  |  | 
6 | O=C(NCCN1CCC(F)(F)CC1)Nc1ccc(OC2CCN(C3CCC3)CC2)cc1 [BIOS-A-7, 1-(4-((1-cyclobutylpiperidin-4-yl)oxy)phenyl)-3-(2-(4,4-difluoropiperidin-1-yl)ethyl)urea] | 101 | 100 |  |  |  |  | 
7 | O=C(NCCN1CCSCC1)Nc1ccc(OC2CCN(C3CCC3)CC2)cc1 [BIOS-A-8, 1-(4-((1-cyclobutylpiperidin-4-yl)oxy)phenyl)-3-(2-thiomorpholinoethyl)urea] | 100 | 100 |  |  |  |  | 
8 | O=C(NCCN1CCC(O)CC1)Nc1ccc(OC2CCN(C3CCC3)CC2)cc1 [BIOS-A-9, 1-(4-((1-cyclobutylpiperidin-4-yl)oxy)phenyl)-3-(2-(4-hydroxypiperidin-1-yl)ethyl)urea] | 101 | 101 |  |  |  |  | 
9 | CN1CCN(CCNC(=O)Nc2ccc(OC3CCN(C4CCC4)CC3)cc2)CC1 [BIOS-A-10, 1-(4-((1-cyclobutylpiperidin-4-yl)oxy)phenyl)-3-(2-(4-methylpiperazin-1-yl)ethyl)urea] | 99.7 | 101 |  |  | -2.92 | < 5 | 
10 | CC(C)N1CCN(CCNC(=O)Nc2ccc(OC3CCN(C4CCC4)CC3)cc2)CC1 [BIOS-A-11, 1-(4-((1-cyclobutylpiperidin-4-yl)oxy)phenyl)-3-(2-(4-isopropylpiperazin-1-yl)ethyl)urea] | 100 | 100 |  |  | -1.22 | < 5 | 
11 | CN1CCCN(CCNC(=O)Nc2ccc(OC3CCN(C4CCC4)CC3)cc2)CC1 [BIOS-A-13, 1-(4-((1-cyclobutylpiperidin-4-yl)oxy)phenyl)-3-(2-(4-methyl-1,4-diazepan-1-yl)ethyl)urea] | 101 | 101 |  |  | -0.54 |  | 
12 | O=C(NCCN1CCNCC1)Nc1ccc(OC2CCN(C3CCC3)CC2)cc1 [BIOS-A-14, 1-(4-((1-cyclobutylpiperidin-4-yl)oxy)phenyl)-3-(2-(piperazin-1-yl)ethyl)urea] | 100 | 99.7 |  |  | -0.62 |  | 
13 | O=C(NCCN1CCN(C2CCC2)CC1)Nc1ccc(OC2CCN(C3CCC3)CC2)cc1 [BIOS-A-15, 1-(2-(4-cyclobutylpiperazin-1-yl)ethyl)-3-(4-((1-cyclobutylpiperidin-4-yl)oxy)phenyl)urea] | 101 | 99.9 |  |  | -0.55 |  | 
14 | CC(C)C[C@H](CN)CC(=O)O [Pregabalin, reference compound] |  |  |  |  |  |  | only increased the mechanical sting threshold of CCI rats at 0.5 h and 1 h after administration
